The values that follow come from ChEMBL document CHEMBL1128423, “Synthesis and evaluation of 6,11-ethanohexahydrobenzo[b]quinolizidines: a new class of noncompetitive N-methyl-D-aspartate antagonists” (J Med Chem, 1995).

pKi: −log10 of the molar value.

The target in this test is Glutamate NMDA receptor. The test is described as follows: Displacement of [3H]TCP from NMDA receptor of rat brain membranes. It counts as cell membranes, Membrane.
As for `Nc1ccc2c(c1)C1C3CCCC3C2N2CCCCC12` (configuration not stated), the pKi is 7.92.

Consider `c1ccc2c(c1)C1C3OCCC3C2N2CCCCC12` (configuration not stated), for which the pKi was 6.22. Compared with the last molecule, the pKi is 1.70 log units lower. With `Fc1ccc2c(c1)C1C3CCCC3C2N2CCCCC12` (configuration not stated) the figure was 7.70; with `Oc1ccc2c(c1)C1C3CCCC3C2N2CCCCC12` (configuration not stated), 8.64. The value for `Oc1cccc2c1C1C3CCCC3C2N2CCCCC12` (configuration not stated) was 8.64.

For `c1ccc2c(c1)C1C3CCCC3C2N2CCCCC12` (configuration not stated), the pKi was 7.82. The value for `c1ccc2c(c1)CC1CCCCN1C2` (configuration not stated) was 5.00. `Oc1ccc2c(c1)C1C3CCCC3C2C2CCCCN21` (configuration not stated) gave a pKi of 7.64. With `Brc1ccc2c(c1)C1C3CCCC3C2N2CCCCC12` (configuration not stated) the figure was 7.39. With `c1ccc2c(c1)C1C3CCCCC3C2N2CCCCC12` (configuration not stated) the figure was 6.87; with `CC12c3ccccc3C(C3CCCC31)N1CCCCC12` (configuration not stated), 7.34; with `c1ccc2c(c1)C1CCC2N2CCCCC12` (configuration not stated), 6.62.
